Experimental findings from patent US5705487A, “Antithrombotic agents” (priority 1995, dated 1998) are described below.

Structures can show the parent of a compound that is named as a salt.

What all share (format): biochemical
For experiment [1], the system named is Human Plasma. Briefly: Human plasma anticoagulation, thrombin time (TT). Conditions: concentration required to double the clotting time. The procedure: (§1) Dog plasma and rat plasma is obtained from conscious mixed-breed hounds (either sex, Hazelton-LRE, Kalamazoo, Mich., U.S.A.) or from anesthetized male Sprague-Dawley rats (Harlan Sprague-Dawley, Inc., Indianapolis, Ind., U.S.A.) by venipuncture into 3.8 percent citrate. Fibrinogen is prepared from in-date ACD human blood as the fraction I-2 according to previous procedures and specifications. […] Human fibrinogen is also purchased as 98 percent pure/plasmin free from American Diagnostica, Greenwich, Conn. Coagulation reagents ACTIN, Thromboplastin, and Human plasma are from Baxter Healthcare Corp., Dade Division, Miami, Fla. Bovine thrombin from Parke-Davis ([…], Mich.) is used for coagulation assays in plasma.
(§2) Coagulation assay procedures are as previously described. […] A CoAScreener coagulation instrument (American LABor, Inc.) is used for all coagulation assay measurements. The prothrombin time (PT) is measured by adding 0.05 mL saline and 0.05 mL Thromboplastin-C reagent to 0.05 mL test plasma. The activated partial thromboplastin time (APTT) is measured by incubation of 0.05 mL test plasma with 0.05 mL Actin reagent for 120 seconds followed by 0.05 mL CaCl2 (0.02M). The thrombin time (TT) is measured by adding 0.05 mL saline and 0.05 mL thrombin (10 NIH units/mL) to 0.05 mL test plasma. The compounds of Formula I are added to human or animal plasma over a wide range of concentrations to determine prolongation effects on the APTT, PT, and TT assays. Linear extrapolations are performed to estimate the concentrations required to double the clotting time for each assay.

The target in experiment [2] is Human Thrombin (Homo sapiens, UniProt P00734). Briefly: Inhibition of the amidase activity of thrombin (Kass). To be noted: chromogenic substrate N-benzoyl-Phe-Val-Arg-p-nitroanilide; mean over range of concentrations.
Experimental: The 150 μL of an aqueous solution of the chromogenic substrate (at 0.25 mg/mL) are added and the rates of hydrolysis of the substrate are measured by monitoring the reactions at 405 nm for the release of p-nitroaniline. Standard curves are constructed by plotting free thrombin concentration against hydrolysis rate. […] The amount of free inhibitor in each assay is calculated by subtracting the number of moles of bound thrombin from the number of moles of added inhibitor (test compound).
The Kass value is the hypothetical equilibrium constant for the reaction between thrombin and the test compound (I).
Kass is calculated for a range of concentrations of test compounds and the mean value is reported in units of liter per mole.
Experiment [3] concerns Human Plasma. Briefly: Human plasma anticoagulation, activated partial thromboplastin time (APTT). Conditions: concentration required to double the clotting time. The procedure:
as §1, §2

For experiment [4], the system named is Human Plasma. Briefly: Human plasma anticoagulation, prothrombin time (PT). To be noted: concentration required to double the clotting time. The procedure:
as §1, §2

Experiment [5] addresses T1, Bovine trypsin (Bos taurus, UniProt P00760).
T1 construct: Bovine trypsin is purchased from Worthington Biochemicals; purchased Worthington Biochemicals, Freehold, N.J
T1 sequence (P00760 24-246): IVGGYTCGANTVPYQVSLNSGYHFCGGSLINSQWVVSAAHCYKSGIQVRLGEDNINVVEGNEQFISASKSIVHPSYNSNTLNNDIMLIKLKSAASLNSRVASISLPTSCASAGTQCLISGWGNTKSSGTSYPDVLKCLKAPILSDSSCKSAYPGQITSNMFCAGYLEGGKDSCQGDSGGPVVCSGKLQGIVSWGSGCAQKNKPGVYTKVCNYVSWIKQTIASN
Briefly: Kass, trypsin chromogenic substrate assay. To be noted: substrate N-Benzoyl-Phe-Val-Arg-p-nitroanilide.

On to `CCS(=O)(=O)N[C@@H](C(=O)N1[C@H](C(=O)NCc2ccc(C(=N)N)cc2)C[C@@H]2CCCC[C@@H]21)c1ccccc1` (relative stereo) [Example 44, EtSO2 -Phg-cis-Ohi-p-NHCH2 C6 H4 C(NH)NH2.HCl], for which, in experiment [1], the “Human Plasma Anticoagulation 2x Clotting time TT” value is given as 4. ng/mL.

Turning to `Cl.Nc1ccc(CNC(=O)[C@@H]2CCCN2C(=O)[C@@H](CC2CCCCC2)NCC(=O)O)cn1` [Example 74, HO2 CCH2 -D-Cha-Pro-5-NHCH2 -2-aminopyridine.HCl], the “Kass × 10^6 (L/mole) Human Thrombin” value in experiment [2] is 29 × 10^6 L/mole. Moreover, the “Human Plasma Anticoagulation 2x Clotting time APTT” value in experiment [3] turned out to be 420 ng/mL. Further, the “Human Plasma Anticoagulation 2x Clotting time TT” value in experiment [1] was determined as 20 ng/mL. The “Human Plasma Anticoagulation 2x Clotting time PT” value in experiment [4] came out at 350 ng/mL.

For the compound `N=C(N)c1ccc(CNC(=O)[C@@H]2CCCN2C(=O)[C@@H](CC2CCCCC2)NCC(=O)O)nc1` [Example 66, HO2 CCH2 -D-Cha-Pro-2-NHCH2 -5-amidinopyridine.HCl], the “Kass × 10^6 (L/mole) Human Thrombin” value in experiment [2] was 120 × 10^6 L/mole. In addition, the “Human Plasma Anticoagulation 2x Clotting time APTT” value in experiment [3] is listed as 180 ng/mL. In addition, the “Human Plasma Anticoagulation 2x Clotting time TT” value in experiment [1] is listed as 7.9 ng/mL. In addition, the “Kass × 10^6 (L/mole) Trypsin” value in experiment [5] is given as 4.6 × 10^6 L/mole. Further, in experiment [4], the “Human Plasma Anticoagulation 2x Clotting time PT” value is on record as 270 ng/mL.

For the compound `Cl.N=C(N)N1CC=C(CNC(=O)[C@@H]2CCCN2C(=O)[C@@H](CC2CCCCC2)NCC(=O)O)CC1` [Example 70, HO2 CCH2 -D-Cha-Pro-4-NHCH2 -1-amidino-3,4-dehydro-piperidine.HCl], in experiment [2], the “Kass × 10^6 (L/mole) Human Thrombin” value is 430 × 10^6 L/mole. Further, the “Human Plasma Anticoagulation 2x Clotting time APTT” value in experiment [3] turned out to be 160 ng/mL. In addition, in experiment [1], the “Human Plasma Anticoagulation 2x Clotting time TT” value is on record as 2 ng/mL. Moreover, in experiment [5], the “Kass × 10^6 (L/mole) Trypsin” value was 9.8 × 10^6 L/mole. For the same compound, the “Human Plasma Anticoagulation 2x Clotting time PT” value in experiment [4] came out at 180 ng/mL.

`CCS(=O)(=O)N[C@H](CC1CCCCC1)C(=O)N1CCC[C@H]1C(=O)NCc1ccnc(N)c1.Cl` [Example 83, EtSO2 -D-Cha-Pro-4-NHCH2 -2-aminopyridine.HCl]: the “Kass × 10^6 (L/mole) Human Thrombin” value in experiment [2] is on record as 2.4 × 10^6 L/mole. The “Human Plasma Anticoagulation 2x Clotting time APTT” value in experiment [3] is recorded as 1,000 ng/mL. Moreover, the “Human Plasma Anticoagulation 2x Clotting time TT” value in experiment [1] was found to be 91 ng/mL. For the same compound, in experiment [5], the “Kass × 10^6 (L/mole) Trypsin” value is reported as 0.03 × 10^6 L/mole. Further, the “Human Plasma Anticoagulation 2x Clotting time PT” value in experiment [4] is reported as 1,300 ng/mL.

On to `CCS(=O)(=O)N[C@H](CC1CCCCC1)C(=O)N1CCC[C@H]1C(=O)NCc1ccc(C(=N)N)cc1.Cl` [Example 80, EtSO2 -D-Cha-Pro-4-NHCH2 C6 H4 C(NH)NH2.HCl], for which the “Human Plasma Anticoagulation 2x Clotting time APTT” value in experiment [3] stood at 40 ng/mL. In addition, the “Human Plasma Anticoagulation 2x Clotting time TT” value in experiment [1] is recorded as 4 ng/mL. Besides, in experiment [5], the “Kass × 10^6 (L/mole) Trypsin” value is on record as 90. × 10^6 L/mole. For the same compound, in experiment [4], the “Human Plasma Anticoagulation 2x Clotting time PT” value is listed as 130 ng/mL.

`Nc1ccc(CNC(=O)[C@@H]2CCCN2C(=O)[C@@H](CC2CCCCC2)NCC(=O)O)cc1F` [Example 77, HO2 CCH2 -D-Cha-Pro-4-NHCH2 -2-F-aniline.HCl]: in experiment [2], the “Kass × 10^6 (L/mole) Human Thrombin” value is given as 11 × 10^6 L/mole. For the same compound, the “Human Plasma Anticoagulation 2x Clotting time APTT” value in experiment [3] is reported as 1,600 ng/mL. Further, the “Human Plasma Anticoagulation 2x Clotting time TT” value in experiment [1] was 53 ng/mL. Besides, the “Human Plasma Anticoagulation 2x Clotting time PT” value in experiment [4] is given as 890 ng/mL.

Turning to `N=C(N)c1ccc(CNC(=O)[C@@H]2CCCN2C(=O)[C@H](NCC(=O)O)C2CCCCC2)cc1` [Example 86, HOOCCH2 -D-Chg-Pro-p-NHCH2 C6 H4 C(NH)NH2.HCl], the “Human Plasma Anticoagulation 2x Clotting time TT” value in experiment [1] was 4 ng/mL.

Consider `Nc1ccc(CNC(=O)[C@@H]2CCCN2C(=O)[C@@H](CC2CCCCC2)NCC(=O)O)cc1` [Example 62, HO2 CCH2 -D-Cha-Pro-4-NHCH2 C6 H4 NH2.HCl], for which the “Kass × 10^6 (L/mole) Human Thrombin” value in experiment [2] is 7.6 × 10^6 L/mole. In experiment [1], the “Human Plasma Anticoagulation 2x Clotting time TT” value amounted to 54 ng/mL.

As for `Cl.Nc1cc(CNC(=O)[C@@H]2CCCN2C(=O)[C@@H](CC2CCCCC2)NCC(=O)O)ccn1` [Example 73, HO2 CCH2 -D-Cha-Pro-4-NHCH2 -2-aminopyridine.HCl], in experiment [2], the “Kass × 10^6 (L/mole) Human Thrombin” value is on record as 28 × 10^6 L/mole. Besides, in experiment [3], the “Human Plasma Anticoagulation 2x Clotting time APTT” value came to 340 ng/mL. Further, the “Human Plasma Anticoagulation 2x Clotting time TT” value in experiment [1] came to 21 ng/mL. Also, in experiment [4], the “Human Plasma Anticoagulation 2x Clotting time PT” value came to 330 ng/mL.

As for `Cl.N=C(N)c1cc(CNC(=O)[C@@H]2CCCN2C(=O)[C@@H](CC2CCCCC2)NCC(=O)O)cs1` [Example 65, HO2 CCH2 -D-Cha-Pro-4-NHCH2 -2-amidinothiophene.HCl], the “Kass × 10^6 (L/mole) Human Thrombin” value in experiment [2] is 4,500 × 10^6 L/mole. Also, in experiment [3], the “Human Plasma Anticoagulation 2x Clotting time APTT” value was 48 ng/mL. In experiment [1], the “Human Plasma Anticoagulation 2x Clotting time TT” value worked out at 1 ng/mL.

On to `CCS(=O)(=O)N[C@H](CC1CCCCC1)C(=O)N1CCC[C@H]1C(=O)NCc1ccc(N)cc1F.Cl` [Example 82, EtSO2 -D-Cha-Pro-4-NHCH2 -3-F-C6 H3 NH2.HCl], for which, in experiment [2], the “Kass × 10^6 (L/mole) Human Thrombin” value is recorded as 5.0 × 10^6 L/mole. In addition, the “Human Plasma Anticoagulation 2x Clotting time APTT” value in experiment [3] is on record as 3,800 ng/mL. Also, the “Human Plasma Anticoagulation 2x Clotting time TT” value in experiment [1] came to 130 ng/mL. In addition, the “Human Plasma Anticoagulation 2x Clotting time PT” value in experiment [4] is given as 3,000 ng/mL.

For the compound “1-Piq-Pro-p-NHCH2 C6 H4 C(NH)NH2.2HCl [Example 18]”, the “Human Plasma Anticoagulation 2x Clotting time TT” value in experiment [1] came to 7 ng/mL.

In the case of `Cl.Nc1ccc(CCNC(=O)[C@@H]2CCCN2C(=O)[C@@H](CC2CCCCC2)NCC(=O)O)cn1` [Example 75, HO2 CCH2 -D-Cha-Pro-5-NHCH2 CH2 -2-aminopyridine.HCl], in experiment [2], the “Kass × 10^6 (L/mole) Human Thrombin” value is reported as 0.45 × 10^6 L/mole.

For the compound `Nc1ccc(CCNC(=O)[C@@H]2CCCN2C(=O)[C@@H](CC2CCCCC2)NCC(=O)O)cc1` [Example 63, HO2 CCH2 -D-Cha-Pro-4-NHCH2 CH2 C6 H4 NH2.HCl], in experiment [2], the “Kass × 10^6 (L/mole) Human Thrombin” value was 0.31 × 10^6 L/mole. The “Human Plasma Anticoagulation 2x Clotting time TT” value in experiment [1] worked out at 680 ng/mL.

With `N=C(N)C1CCC(CNC(=O)[C@@H]2CCCN2C(=O)[C@@H](CC2CCCCC2)NCC(=O)O)NC1` (stereo partly drawn) [Example 67, HO2 CCH2 -D-Cha-Pro-2-NHCH2 -5-amidinopiperidine.HCl], in experiment [2], the “Kass × 10^6 (L/mole) Human Thrombin” value is recorded as 11 × 10^6 L/mole. Besides, the “Human Plasma Anticoagulation 2x Clotting time APTT” value in experiment [3] is 1,800 ng/mL. Moreover, the “Human Plasma Anticoagulation 2x Clotting time TT” value in experiment [1] worked out at 34. ng/mL. For the same compound, the “Human Plasma Anticoagulation 2x Clotting time PT” value in experiment [4] is 1,300 ng/mL.

With “HOOCCH2 -D-Phe-Pro-p-NHCH2 C6 H4 C(NH)NH2.HCl [Example 46]”, the “Human Plasma Anticoagulation 2x Clotting time TT” value in experiment [1] worked out at 2. ng/mL.

With `Cl.N=C(N)C1=CNC(CNC(=O)[C@@H]2CCCN2C(=O)[C@@H](CC2CCCCC2)NCC(=O)O)CC1` (stereo partly drawn) [Example 68, HO2 CCH2 -D-Cha-Pro-2-NHCH2 -5-amidino-5,6-dehydro-piperidine.HCl], in experiment [2], the “Kass × 10^6 (L/mole) Human Thrombin” value was 600 × 10^6 L/mole. In experiment [3], the “Human Plasma Anticoagulation 2x Clotting time APTT” value was 49 ng/mL. For the same compound, the “Human Plasma Anticoagulation 2x Clotting time TT” value in experiment [1] is given as 4. ng/mL. The “Human Plasma Anticoagulation 2x Clotting time PT” value in experiment [4] is 190 ng/mL.

As to “EtSO2 -D-Phe-Pro-p-NHCH2 -C6 H4 C(=NH)NH2.HCl [Example 23]”, in experiment [1], the “Human Plasma Anticoagulation 2x Clotting time TT” value was 7 ng/mL.
